Patent US4968788A, “Biologically reversible phosphate and phosphonate protective gruops” (Board of Regents, The University of Texas System, priority 1989, dated 1990)
Blank lines part the entries; values can stand above or below the compound they belong to.

How the values were obtained:
[1] = physchem; format: physicochemical
Protocol: Several tests have been performed with both types of protected compositions. […] The stabilities of these protected compositions were determined in aqueous buffered solutions having pH ranging from 1 to 10, and also under selected biological conditions. Except for the acetoxymethyl derivatives of the second type, these phosphoesters were relatively stable in a neutral environment. They reverted to their parent compounds in acidic or basic media.
The protected product was stable in neutral aprotic solvents such as benzene, diethyl ether and ethyl acetate. […] The half-life was greater than 4 hours.
These solutions were analyzed by (HPLC) high performance liquid chromatography (Waters model ALC 204). The disappearance of the bis(acyloxymethyl) phosphate was monitored by reversed-phase chromatography on a column of μ Bondapak-C18 (30 cm×4 mm i.d., 10 μm; Waters Assoc., Milford, Mass.) using solutions of 0.01M potassium phosphate buffer (pH 7.0) with methanol as the mobile phase (typically 25-50% alcohol).
The formation of intermediate B and mono(acetoxymethyl) phosphate C was monitored by ion-pair chromatography on μ Bondapak-C using the same buffer system as described above, except that tetrabutylammonium hydroxide was added to a concentration 2×10^-3 M, or by anion-exchange chromatography on a column of Partisil SAX (25 cm×4.6 mm i.d., 10 μm; Whatman) using a linear gradient of 0.01-0.1M potassium phosphate buffer (pH 6.5) as an eluent. The flow rates for these analyses and the ones described above ranged from 1.0 to 2.0 ml/min. The column effluents were monitored at 254 nm with a Schoeffel model 450 UV detector, and the concentrations were determined by comparison of the peak areas with those of reference standards.

[2] = tested on: hog liver carboxylate esterase; experiment: degradation on incubation with hog liver carboxylate esterase; format: in vitro ADME
Protocol: (§1) (At appropriate intervals, aliquots (100 μl) of the incubation mixtures were diluted with 3 volumes of methanol and then agitated for 1 minute on a Vortex shaker. The precipitated protein was separated by centrifugation at 10,000×g for 5 minutes, and the supernatants were analyzed by HPLC as described above.)
(§2) was incubated at […] with mouse plasma and hog liver carboxylate esterase.

[3] = as above; format: in vitro ADME; conditions: pig, liver carboxylate esterase; 65 micrograms per milliliter, 37° C., pH 7.4, 8 milligrams protein per milliliter
Protocol: as §1, §2

[4] = degradation on incubation with mouse plasma; format: in vitro ADME
Protocol: as §1, §2

[5] = tested on: Chinese hamster ovary cells; experiment: prevention of growth of Chinese hamster ovary cells in culture; format: cell-based
Protocol: Example 5 was repeated with the R substituent changed to fluorine (i.e., 2',5-dideoxy-5'-iodo-3'-O-acetyl-5-fluorouridine). There was a 15% yield of this product. This composition prevented the growth of Chinese hamster ovary cells in culture at a concentration of 5.0×10^-6 M [5-fluoro-2'-deoxyuridine (5-FUdR) control, 1.0×10^-6 M].
as §2

[6] = tested on: P388 leukemia which is resistant to 5-fluorouracil; experiment: activity against P388 leukemia resistant to 5-fluorouracil; conditions: P388 resistant to 5-fluorouracil
[7] = 65 micrograms per milliliter, 37° C., 0.05M potassium phosphate buffer (pH 7.4), mouse plasma 50% by volume

SMILES: CC(=O)OCOP(=O)(OCOC(C)=O)Oc1ccccc1 [Example 2, bis(acetoxymethyl) phenyl phosphate]
- conversion in protonic solvents ([1]; ethanol, water or 0.05M potassium phosphate buffer (pH 7.4)): slowly converted to mono(acetoxymethyl) phenyl phosphate
- half-life ([1]; ethanol, water or 0.05M potassium phosphate buffer (pH 7.4), read-out: half-life in protonic solvents): > 4 h
- stability in neutral aprotic solvents ([1]; neutral aprotic solvents such as benzene, diethyl ether and ethyl acetate): stable
- degradation by hog liver carboxylate esterase (first to mono(acetoxymethyl) analog, then to phenyl phosphate) ([2]; 65 micrograms per milliliter, 37° C., pH 7.4, 8 milligrams protein per milliliter): rapidly degraded
- half-life [3]: < 0.25 h
- degradation in mouse plasma (first to mono(acetoxymethyl) analog, then to phenyl phosphate) [4, 7]: rapidly degraded
- half-life [4, 7]: < 0.25 h

SMILES: CC(C)(C)C(=O)OCOP(=O)(OCOC(=O)C(C)(C)C)Oc1ccccc1 [Example 3, bis(pivaloyloxymethyl) phenyl phosphate]
- stability in protonic solvents ([1]; protonic solvents): stable in protonic solvents
- resistance to both chemical and enzymatic hydrolysis ([4]; compared with the protected composition of Example 1 (so in the source)): much more resistant
- half-life ([4]; pH 7.4, incubated with mouse plasma under the same conditions as in Example 2): ~5 h

SMILES: O=c1[nH]c(=O)n([C@H]2C[C@H](O)[C@@H](CO)O2)cc1F [Example 5-FUdR, 5-fluoro-2'-deoxyuridine, reference compound]
- minimal effective concentration ([5]; Cricetulus griseus, read-out: concentration that prevented the growth of Chinese hamster ovary cells): 1 µM

SMILES: CC(C)(C)C(=O)OC1CCOP(=O)(Oc2ccccc2)O1 (stereo not shown) [Example 1]
- stability in organic solvents or aqueous buffers ([1]; organic solvents or aqueous buffers): stable
- conversion to phenyl phosphate with strong acids or bases ([1]; strong acids or bases): quantitatively converted to phenyl phosphate
- reversion to phenyl phosphate in mouse plasma ([4]; 37° C., 30 minutes, mouse plasma): reverted to phenyl phosphate

- cleavage of acyloxymethyl groups and 3'-acetyl group with hog liver carboxylate esterase [2]: successively cleaved to give 5-FdUMP
- cleavage of acyloxymethyl groups and 3'-acetyl group in mouse plasma [4]: successively cleaved to give 5-FdUMP
SMILES: CC(=O)O[C@H]1C[C@H](n2cc(F)c(=O)[nH]c2=O)O[C@@H]1COP(=O)(OCOC(=O)C(C)(C)C)OCOC(=O)C(C)(C)C [Example 7]
- concentration that prevented the growth of Chinese hamster ovary cells [5]: 1 µM
- activity against P388 leukemia [6]: active

SMILES: CC(=O)O[C@H]1C[C@H](n2cc(F)c(=O)[nH]c2=O)O[C@@H]1COP(=O)(OCOC(=O)C(C)(C)C)OCOC(=O)C(C)(C)C [Example 6]
- concentration that prevented the growth of Chinese hamster ovary cells [5]: 5 µM
